Measured values: ChEMBL document CHEMBL4382229, “Benzofuran derivatives and their anti-tubercular, anti-bacterial activities” (Eur J Med Chem, 2019)
Values after ≈ are worked out from the molar mass of the structure shown.

Columns and labels:
Assay type in all cases: functional
Bacillus subtilis [1] = experiment: Antibacterial activity against Bacillus subtilis MTCC 1134 after 24 hrs by broth dilution method; details: MTCC 1134, 24 h
Pseudomonas aeruginosa [2] = experiment: Antibacterial activity against Pseudomonas aeruginosa MTCC 1034 after 24 hrs by broth dilution method; details: MTCC 1034, 24 h
Escherichia coli [3] = experiment: Antibacterial activity against Escherichia coli MTCC 1559 after 24 hrs by broth dilution method; details: MTCC 1559, 24 h
Staphylococcus aureus [4] = experiment: Antibacterial activity against Staphylococcus aureus NCIM 2079 assessed as zone of inhibition at 1 ug/ml after 24 hrs by agar diffusion method; details: NCIM 2079, 24 h, read-out: IZ
Bacillus subtilis [5] = experiment: Antibacterial activity against Bacillus subtilis NCIM 2439 assessed as zone of inhibition at 1 ug/ml after 24 hrs by agar diffusion method; details: NCIM 2439, 24 h, read-out: IZ
Pseudomonas aeruginosa [6] = experiment: Antibacterial activity against Pseudomonas aeruginosa NCIB 8650 assessed as zone of inhibition at 1 ug/ml after 24 hrs by agar diffusion method; details: NCIB 8650, 24 h, read-out: IZ
Escherichia coli [7] = experiment: Antibacterial activity against Escherichia coli NCIM 2064 assessed as zone of inhibition at 1 ug/ml after 24 hrs by agar diffusion method; details: NCIM 2064, 24 h, read-out: IZ
Escherichia coli [8] = experiment: Antibacterial activity against Escherichia coli assessed as zone of inhibition at 1 mg/ml after 32 hrs by agar-well diffusion method; details: read-out: IZ
Klebsiella pneumoniae = experiment: Antibacterial activity against Klebsiella pneumoniae assessed as zone of inhibition at 1 mg/ml after 32 hrs by agar-well diffusion method; details: read-out: IZ
Staphylococcus aureus [9] = experiment: Antibacterial activity against Staphylococcus aureus assessed as zone of inhibition at 1 mg/ml after 32 hrs by agar-well diffusion method; details: read-out: IZ
Pseudomonas aeruginosa [10] = experiment: Antibacterial activity against Pseudomonas aeruginosa assessed as zone of inhibition at 1 mg/ml after 32 hrs by agar-well diffusion method; details: read-out: IZ

Structure (SMILES) | zone of inhibition at 1 µg/mL (Staphylococcus aureus [4]) | zone of inhibition at 1 µg/mL (Bacillus subtilis [5]) | zone of inhibition at 1 µg/mL (Pseudomonas aeruginosa [6]) | zone of inhibition at 1 µg/mL (Escherichia coli [7]) | zone of inhibition at 1000 µg/mL (Escherichia coli [8]) | zone of inhibition at 1000 µg/mL (Klebsiella pneumoniae) | zone of inhibition at 1000 µg/mL (Staphylococcus aureus [9]) | zone of inhibition at 1000 µg/mL (Pseudomonas aeruginosa [10]) | also measured
Cc1ccc(-c2cc(-c3cc4cc(Br)ccc4o3)nc(O)n2)s1 |  |  |  |  |  |  |  |  | MIC (Bacillus subtilis [1]): 4.32 to 18.4 mg/L (≈ 11.2 to 47.6 µM); MIC (Pseudomonas aeruginosa [2]): 4.32 to 18.4 mg/L (≈ 11.2 to 47.6 µM); MIC (Escherichia coli [3]): 4.32 to 18.4 mg/L (≈ 11.2 to 47.6 µM)
COC(=O)c1cc(-c2oc3ccc(Cl)cc3c2C)n(C(N)=O)n1 | 9 to 30 mm | 9 to 30 mm | 9 to 30 mm | 9 to 30 mm |  |  |  |  | 
Cc1ccc(-c2cc(-c3cc4cc(Br)ccc4o3)nc(N)n2)s1 |  |  |  |  |  |  |  |  | MIC (Bacillus subtilis [1]): 4.32 to 18.4 mg/L (≈ 11.2 to 47.8 µM); MIC (Pseudomonas aeruginosa [2]): 4.32 to 18.4 mg/L (≈ 11.2 to 47.8 µM); MIC (Escherichia coli [3]): 4.32 to 18.4 mg/L (≈ 11.2 to 47.8 µM)
Brc1ccc2oc(-c3cn4c(-c5cc6ccccc6o5)csc4n3)cc2c1 |  |  |  |  | 6 to 23 mm | 6 to 23 mm | 6 to 23 mm | 6 to 23 mm | 
Oc1nc(-c2cc3ccccc3o2)cc(-c2cccs2)n1 |  |  |  |  |  |  |  |  | MIC (Bacillus subtilis [1]): 4.32 to 18.4 mg/L (≈ 14.7 to 62.7 µM); MIC (Pseudomonas aeruginosa [2]): 4.32 to 18.4 mg/L (≈ 14.7 to 62.7 µM); MIC (Escherichia coli [3]): 4.32 to 18.4 mg/L (≈ 14.7 to 62.7 µM)
COC(=O)c1cc(-c2oc3c(Cl)cc(Cl)cc3c2C)n(-c2ccccc2)n1 | 9 to 30 mm | 9 to 30 mm | 9 to 30 mm | 9 to 30 mm |  |  |  |  | 
COC(=O)c1cc(-c2cc3ccccc3o2)n(-c2ccccc2)n1 | 9 to 30 mm | 9 to 30 mm | 9 to 30 mm | 9 to 30 mm |  |  |  |  | 
Cc1c(-c2cc(C(=O)NN)nn2-c2ccccc2)oc2ccc(Cl)cc12 | 9 to 30 mm | 9 to 30 mm | 9 to 30 mm | 9 to 30 mm |  |  |  |  | 
Fc1ccc(-c2csc3nc(-c4cc5ccccc5o4)cn23)cc1 |  |  |  |  | 6 to 23 mm | 6 to 23 mm | 6 to 23 mm | 6 to 23 mm | 
Cc1ccc(-c2csc3nc(-c4cc5cc(Br)ccc5o4)cn23)cc1 |  |  |  |  | 6 to 23 mm | 6 to 23 mm | 6 to 23 mm | 6 to 23 mm | 
COC(=O)c1cc(-c2oc3ccc(Cl)cc3c2C)n(-c2ccccc2)n1 | 9 to 30 mm | 9 to 30 mm | 9 to 30 mm | 9 to 30 mm |  |  |  |  | 
Nc1nc(-c2cc3cc(Br)ccc3o2)cc(-c2cccs2)n1 |  |  |  |  |  |  |  |  | MIC (Bacillus subtilis [1]): 4.32 to 18.4 mg/L (≈ 11.6 to 49.6 µM); MIC (Pseudomonas aeruginosa [2]): 4.32 to 18.4 mg/L (≈ 11.6 to 49.6 µM); MIC (Escherichia coli [3]): 4.32 to 18.4 mg/L (≈ 11.6 to 49.6 µM)
COC(=O)c1cc(-c2oc3c(Cl)cc(Cl)cc3c2C)n(C(N)=O)n1 | 9 to 30 mm | 9 to 30 mm | 9 to 30 mm | 9 to 30 mm |  |  |  |  | 
COC(=O)c1cc(-c2cc3cc(Br)ccc3o2)n(C(N)=O)n1 | 9 to 30 mm | 9 to 30 mm | 9 to 30 mm | 9 to 30 mm |  |  |  |  | 
CCOC(=O)c1cc(-c2oc3c(Cl)cc(Cl)cc3c2C)on1 | 9 to 30 mm | 9 to 30 mm | 9 to 30 mm | 9 to 30 mm |  |  |  |  | 
Brc1ccc2oc(-c3cn4c(-c5cc6cc(Br)ccc6o5)csc4n3)cc2c1 |  |  |  |  | 6 to 23 mm | 6 to 23 mm | 6 to 23 mm | 6 to 23 mm | 
COC(=O)c1cc(-c2oc3ccc(Cl)cc3c2C)[nH]n1 | 9 to 30 mm | 9 to 30 mm | 9 to 30 mm | 9 to 30 mm |  |  |  |  | 
Cc1ccc(-c2csc3nc(-c4cc5ccccc5o4)cn23)cc1 |  |  |  |  | 6 to 23 mm | 6 to 23 mm | 6 to 23 mm | 6 to 23 mm | 
Brc1ccc2oc(-c3cn4c(-c5ccccc5)csc4n3)cc2c1 |  |  |  |  | 15 to 20 mm | 15 to 20 mm | 15 to 20 mm | 15 to 20 mm | 
Brc1ccc2oc(-c3csc4nc(-c5cc6ccccc6o5)cn34)cc2c1 |  |  |  |  | 6 to 23 mm | 6 to 23 mm | 6 to 23 mm | 6 to 23 mm | 
